System: Rhizoctonia solani
Assay: Soybean seed treatment test against disease caused by Rhizoctonia solani in contaminated soil
Assay type: in vivo, Rhizoctonia solani on soybean (variety: Natto shoryu)
Details: seed treatment of soybean; carboxamide compound 0.2 g/100 kg of seeds alone (no sulfoxaflor); cultivated 20 days in soil contaminated by Rhizoctonia solani
Protocol: A cyclohexanone solution (100 microL) containing prescribed amount (weight) of a test compound was applied on seeds of soybean (variety: Natto shoryu) (10 g) by using a rotary apparatus for seed treatment (Seed dresser, manufactured by Hans-Ulrich Hege GmbH). One day after the application, plastic pot was filled with soil contaminated by Rhizoctonia solani, and the seeds treated with the test compounds were seeded in the soil and cultivated in a glass-greenhouse for 20 days (hereinafter referred to as “treated plot”). Thereafter, the presence of disease caused by Rhizoctonia solani in the young plants which germinated from each seed was observed and disease severity was calculated according to the following calculation formula (1). On the other hand, seeds of soybean which are not treated as above were cultivated in the same way as above (hereinafter referred to as “non-treated plot”) and the disease severity in the “non-treated plot” was calculated in the same way as the above “treated plot”. On the basis of the above severity in “treated plot” and “non-treated plot”, efficacy in “treated plot” was evaluated according to the following calculation formula (2). […]

Cc1nn(C)c(C)c1C(=O)Nc1cccc2c1C(C)CC2(C)C (stereo not shown) [carboxamide compound (5)]
efficacy (%): 15.8%
